Key:
Assay type in all cases: biochemical
human HSD17B13 = molecular target: T1, human HSD17B13 (Homo sapiens, UniProt Q7Z5P4); test: Substrate screening of steroid and bioactive lipid libraries against purified recombinant HSD17B13 (NADH-linked luciferase assay); conditions: Steroid Library, 50 μM steroid; for HSD17B13 Enzymatic Activity Relative Light Units: 500 μM NAD+, 100 ng enzyme, 3 hours at 23° C.; for HSD17B13 Enzymatic Activity Percent Estradiol Control: normalized to 50 μM estradiol after subtraction of 5% DMSO
T1 sequence (Q7Z5P4 20-300): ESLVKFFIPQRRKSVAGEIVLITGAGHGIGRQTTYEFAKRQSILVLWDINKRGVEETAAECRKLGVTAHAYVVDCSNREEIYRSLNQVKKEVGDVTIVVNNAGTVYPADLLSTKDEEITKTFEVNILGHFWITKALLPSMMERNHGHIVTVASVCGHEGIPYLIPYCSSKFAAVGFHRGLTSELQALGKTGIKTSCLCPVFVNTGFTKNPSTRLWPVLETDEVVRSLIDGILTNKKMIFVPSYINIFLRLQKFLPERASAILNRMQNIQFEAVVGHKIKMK
How it was run: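 Substrates (bioactive lipids 5 μM, steroids 50 μM; 5% DMSO) tested with 500 μM NAD+ and 100 ng recombinant human HSD17B13 in 0.2 M Tris-HCl pH 7.5, 3 h, 23° C. Luminescent NADH detection followed 1 h later; RLU normalized to estradiol (50 μM, 100%) and DMSO (0%) controls.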

HSD17B10 = molecular target: T2, HSD17B10 (Homo sapiens, UniProt Q99714); test: Steroid substrate panel against HSD17B family member B10; conditions: substrate at 50 μM; estradiol set as 100%
T2 construct: made in house
T2 sequence (Q99714 1-261): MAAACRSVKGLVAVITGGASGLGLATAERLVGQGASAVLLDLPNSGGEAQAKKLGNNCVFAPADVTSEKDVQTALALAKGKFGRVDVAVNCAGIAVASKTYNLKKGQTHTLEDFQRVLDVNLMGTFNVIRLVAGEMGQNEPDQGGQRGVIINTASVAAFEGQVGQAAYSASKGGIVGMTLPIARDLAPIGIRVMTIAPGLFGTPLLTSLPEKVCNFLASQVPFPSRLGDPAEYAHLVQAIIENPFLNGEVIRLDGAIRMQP
Procedure: (§1) To understand the functional consequences of premature truncation of the HSD17B13 protein due to rs72613567:TA (the associated variant, rs72613567, is an insertion of an adenine adjacent to the donor splice site of exon six (TA allele)), the enzymatic activity of isoforms A and D was evaluated in vitro using recombinant protein and nicotinamide […] dinucleotide as cofactor. Reactions were performed in a final volume of 40 μl of assay buffer (0.2 M Tris-HCl, pH 7.5) which contained 500 μM NAD^+, 5 μM bioactive lipid or 50 μM steroid (all in a final concentration of 5% DMSO), and 100 ng of recombinant human HSD17B13. Reactions were incubated for 3 hours, at 23° C., after which an equal volume detection reagent was added. Following a 1 hour incubation at 23° C., the relative light units (RLUs) were measured on an Envision Plate Reader (Perkin Elmer). Raw RLU values were normalized as percent of control (50 μM estradiol) following subtraction of negative control (5% DMSO) using the following formula: Percent of control (POC)=100×(Sample (RLU)−Negative CTRLaverage)/(Positive CTRLaverage−Negative CTRLaverage).
(§2) In order to determine specificity of compounds with inhibitory activity against HSD17B13, assays for selected members of the HSD17B family which includes HSD17B1-HSD17B14 were established. As a first step, selected family members were expressed, purified and tested for activity a using a steroid substrate panel. Substrates from the steroid panel were tested at 50 μM, using the standard assay protocol. Activity against the substrates for each HSD17B family member were normalized to Percent of Control (POC). The control, estradiol, was set as 100%.

HSD17B4 = molecular target: T3, HSD17B4 (Homo sapiens, UniProt P51659); test: Steroid substrate panel against HSD17B family member B4; conditions: substrate at 50 μM; estradiol set as 100%
T3 construct: made in house
T3 sequence (P51659 1-736): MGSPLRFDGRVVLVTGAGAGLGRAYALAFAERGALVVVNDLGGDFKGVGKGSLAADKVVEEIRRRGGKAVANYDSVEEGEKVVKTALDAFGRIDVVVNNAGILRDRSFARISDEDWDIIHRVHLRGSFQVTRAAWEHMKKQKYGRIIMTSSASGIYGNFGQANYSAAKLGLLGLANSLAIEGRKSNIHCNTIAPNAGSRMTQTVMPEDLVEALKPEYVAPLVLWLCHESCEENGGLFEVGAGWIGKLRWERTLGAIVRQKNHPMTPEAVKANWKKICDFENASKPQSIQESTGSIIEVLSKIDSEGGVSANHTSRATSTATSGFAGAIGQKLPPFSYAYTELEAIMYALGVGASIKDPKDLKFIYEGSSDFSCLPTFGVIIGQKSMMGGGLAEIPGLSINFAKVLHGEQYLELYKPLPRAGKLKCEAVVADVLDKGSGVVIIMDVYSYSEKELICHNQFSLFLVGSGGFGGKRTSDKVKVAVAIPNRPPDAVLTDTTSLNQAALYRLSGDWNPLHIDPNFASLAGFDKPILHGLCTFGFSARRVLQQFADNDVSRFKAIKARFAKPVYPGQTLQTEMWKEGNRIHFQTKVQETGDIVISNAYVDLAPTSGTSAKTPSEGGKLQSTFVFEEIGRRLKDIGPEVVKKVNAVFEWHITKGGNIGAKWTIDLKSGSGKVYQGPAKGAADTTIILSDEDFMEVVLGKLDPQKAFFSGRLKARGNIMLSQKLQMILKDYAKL
Procedure: as §1, §2

HSD17B1 = molecular target: T4, HSD17B1 (Homo sapiens, UniProt P14061); test: Steroid substrate panel against HSD17B family member B1; conditions: substrate at 50 μM; estradiol set as 100%
T4 construct: made in house
T4 sequence (P14061 1-328): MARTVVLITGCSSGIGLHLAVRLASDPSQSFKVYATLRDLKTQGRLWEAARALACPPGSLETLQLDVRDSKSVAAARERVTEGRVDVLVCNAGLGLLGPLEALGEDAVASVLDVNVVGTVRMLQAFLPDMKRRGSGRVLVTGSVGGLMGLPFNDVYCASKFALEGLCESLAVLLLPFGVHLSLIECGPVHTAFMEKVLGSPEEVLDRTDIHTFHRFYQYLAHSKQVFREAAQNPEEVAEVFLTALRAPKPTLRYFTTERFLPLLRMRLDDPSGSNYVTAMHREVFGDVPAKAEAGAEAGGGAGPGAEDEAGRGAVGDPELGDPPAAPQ
Procedure: as §1, §2

HSD17B5 = molecular target: T5, HSD17B5 (Homo sapiens, UniProt P42330); test: Steroid substrate panel against HSD17B family member B5; conditions: substrate at 50 μM; estradiol set as 100%
T5 construct: made in house
T5 sequence (P42330 1-323): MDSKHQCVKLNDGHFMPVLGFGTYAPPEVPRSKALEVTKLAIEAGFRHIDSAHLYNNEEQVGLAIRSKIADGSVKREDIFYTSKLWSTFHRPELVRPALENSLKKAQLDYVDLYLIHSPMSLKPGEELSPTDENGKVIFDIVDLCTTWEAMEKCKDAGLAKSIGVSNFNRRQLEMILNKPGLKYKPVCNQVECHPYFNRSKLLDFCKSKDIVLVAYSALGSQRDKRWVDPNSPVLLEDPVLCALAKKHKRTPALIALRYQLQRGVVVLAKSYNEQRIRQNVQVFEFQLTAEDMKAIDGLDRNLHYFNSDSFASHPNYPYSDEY
Procedure: as §1, §2

HSD17B2 = molecular target: T6, HSD17B2 (Homo sapiens, UniProt P37059); test: Steroid substrate panel against HSD17B family member B2; conditions: substrate at 50 μM; estradiol set as 100%
T6 construct: made in house
T6 sequence (P37059 1-387): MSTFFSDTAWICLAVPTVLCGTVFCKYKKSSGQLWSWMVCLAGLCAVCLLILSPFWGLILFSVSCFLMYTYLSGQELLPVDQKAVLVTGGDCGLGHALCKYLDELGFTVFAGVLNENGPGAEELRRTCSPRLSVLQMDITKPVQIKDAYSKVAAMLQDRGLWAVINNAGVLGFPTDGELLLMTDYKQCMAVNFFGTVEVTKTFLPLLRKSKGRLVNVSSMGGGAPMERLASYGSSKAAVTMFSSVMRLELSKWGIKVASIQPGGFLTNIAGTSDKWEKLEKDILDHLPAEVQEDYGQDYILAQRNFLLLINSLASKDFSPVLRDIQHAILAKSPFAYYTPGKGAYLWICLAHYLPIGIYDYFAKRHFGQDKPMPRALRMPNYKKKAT
Procedure: as §1, §2

HSD17B11 = molecular target: T7, HSD17B11 (Homo sapiens, UniProt Q8NBQ5); test: Steroid substrate panel against HSD17B family member B11; conditions: substrate at 50 μM; estradiol set as 100%
T7 construct: made in house
T7 sequence (Q8NBQ5 20-300): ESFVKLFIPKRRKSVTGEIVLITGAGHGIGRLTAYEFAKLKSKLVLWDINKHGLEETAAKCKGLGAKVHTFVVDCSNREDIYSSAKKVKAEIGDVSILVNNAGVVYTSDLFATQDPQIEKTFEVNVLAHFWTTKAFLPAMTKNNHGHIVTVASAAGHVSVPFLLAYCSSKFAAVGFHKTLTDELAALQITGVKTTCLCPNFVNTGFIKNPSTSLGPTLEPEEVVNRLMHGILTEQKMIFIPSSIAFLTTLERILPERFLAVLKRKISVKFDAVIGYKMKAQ
Procedure: as §1, §2

Row | Structure (SMILES) | HSD17B13 Enzymatic Activity Relative Light Units (human HSD17B13) | HSD17B13 Enzymatic Activity Percent Estradiol Control (human HSD17B13) | Percent of Control (POC), B10 (HSD17B10) | Percent of Control (POC), B4 (HSD17B4) | Percent of Control (POC), B1 (HSD17B1) | Percent of Control (POC), B5 (HSD17B5) | Percent of Control (POC), B2 (HSD17B2) | Percent of Control (POC), B11 (HSD17B11)
1 | C[C@]12CC[C@@H](O)C[C@@H]1CC[C@@H]1[C@@H]2[C@@H](O)C[C@@]2(C)[C@H]1CC[C@]2(O)C(=O)CO [5alpha-Tetrahydrocortisol] | 229040 RLU | 1.20% | 46.3% | 0.2% | −0.1% | 0% | 3.1% | 0.0%
2 | C[C@]12CC[C@@H](O)C[C@H]1CC[C@@H]1[C@@H]2C(=O)C[C@]2(C)C(=O)CC[C@@H]12 [11-oxo-etiocholanolone] | 195960 RLU | 0.62% | 30.7% | 0.2% | −0.1% | 13% | 0.0% | 0.0%
3 | C[C@]12CC[C@H]3[C@@H](CCC4=CC(=O)CC[C@@]43C)[C@@H]1CC[C@@H]2O [Testosterone] | 1125600 RLU | 16.86% | 4.0% | 84.6% | 1.1% | 0% | 96.2% | 10.4%
4 | C[C@]12CC[C@@H](O)C[C@H]1CC[C@@H]1[C@@H]2C(=O)C[C@@]2(C)[C@H]1CC[C@]2(O)C(=O)CO [TetrahydroCortisone] | 232320 RLU | 1.25% | 52.2% | 0.5% | 0.0% | 104% | 1.0% | 0.0%
5 | C[C@H](O)[C@@]1(O)CC[C@H]2[C@@H]3CC[C@@H]4C[C@H](O)CC[C@]4(C)[C@H]3CC[C@@]21C [Pregnanetriol] | 163920 RLU | 0.06% | 26.4% | 0.4% | −0.1% | 48% | 6.1% | 26.1%
6 | C[C@]12CC[C@@H](O)C[C@@H]1CC[C@@H]1[C@@H]2CC[C@]2(C)C(=O)[C@H](O)C[C@@H]12 [16alpha-Hydroxyandrosterone] | 221840 RLU | 1.07% | 69.7% | 0.5% | 0.0% | 45% | 1.5% | 0.0%
7 | C[C@]12CC[C@@H](O)C[C@@H]1CC[C@@H]1[C@@H]2CC[C@]2(C)C(=O)CC[C@@H]12 [Androsterone] | 158120 RLU | −0.04% | 91.0% | 0.3% | 0.0% | 0% | 1.0% | 0.0%
8 | CC(=O)OCC(=O)[C@H]1CC[C@H]2[C@@H]3CCC4=CC(=O)CC[C@]4(C)[C@H]3[C@@H](O)C[C@]12C [Corticosterone 21-acetate] | 190160 RLU | 0.52% | 0.3% | 0.1% | −0.1% | 0% | 0.0% | 32.2%
9 | C[C@]12CC[C@@H](O)C[C@@H]1CC[C@@H]1[C@@H]2C(=O)C[C@]2(C)C(=O)CC[C@@H]12 [11-oxo-androsterone] | 196640 RLU | 0.63% | 31.4% | 0.4% | 0.0% | 0% | 0.0% | 0.0%

Reference: patent US11479802B2, “Assays for screening activity of modulators of members of the hydroxy steroid (17-beta) dehydrogenase (HSD17B) family” (Regeneron Pharmaceuticals, Inc., priority 2017, dated 2022)
